# In US4457919A, “Method of imparting immunomodulating, antiviral or antitumor activity” (Newport Pharmaceutical International, Inc., priority 1982, dated 1984):
# Where two headings read alike, the source gives them in different places.
# Key:
# [1] = tested on: Vero Cells, Liver Homogenate, and Human Peripheral Blood Lymphocytes; assay: Conversion of pro-drugs to NPT 15392 by animal cells and tissues, stated in words; assay type: in vitro ADME; details: NPT 15458 compared with NPT 15457
# [2] = Formation of NPT 15392 on incubation with human peripheral blood lymphocytes (HPLC); assay type: in vitro ADME; details: human, peripheral blood lymphocytes
# Text: (§1) | ^a Determined using HPLC
# HPBL = assay: as above; assay type: in vitro ADME; details: HPBL, 0 hrs.
# Text: as §1
# L1210 (mouse) = assay: Inhibition of growth of L1210 mouse leukemia cells; assay type: cell-based; details: 10 μg/ml
# Method: (§2) Effect of Erythro-9-(2-Acetoxy-3-Nonyl)-Hypoxanthine on Growth of Tumor (Leukemia) Cells In Vivo
# The activity of one of these agents, NPT 15458 as inhibitors of the growth of abnormal lymphocytes has been determined. […] A 40% inhibition of L-1210 cells was effected by NPT 15458 at 10 μg/ml.
# mouse spleen cells = assay: PHA mitogen-induced lymphocyte proliferation using murine spleen cells (in vitro); assay type: cell-based; details: for Cpm Incorp. +PHA: with PHA; for Cpm Incorp. -PHA: without PHA
# Text: 1. Mitogen induced lymphocyte proliferation using murine spleen cells (in vitro).
# [3] = tested on: human peripheral blood lymphocytes; assay: PHA mitogen-induced lymphocyte proliferation using human peripheral blood lymphocytes (HPBL); assay type: cell-based; details: for Cpm Incorp. +PHA: with PHA; for Cpm Incorp. +PHA / Cpm Incorp. -PHA / S.I. / fold induction at 0.036 µM / fold induction at 0.36 µM / fold induction at 3.6 µM: NPT 15392 values means of three experiments; for Cpm Incorp. -PHA: without PHA; for S.I.: NPT 15458 p ≤ 0.05; for fold induction at 0.036 µM / fold induction at 0.36 µM / fold induction at 3.6 µM: Homo sapiens, Lymphocyte, read-out: D/C (S.I. drug / control); for Immunomodulating (in vitro) lymphocyte proliferation (in words): PHA, HPBL; for Immunomodulating (in vitro) Lymph. Prolif., change: Table 11 summary
# Method: 2. Mitogen induced lymphocyte proliferation using human peripheral blood lymphocytes (HPBL) (in vitro).
# 1. Twenty-two and a half grams of Ficoll 400 (Pharmacia, M.W. .perspectiveto.400,000) are dissolved in 200 ml of distilled H2 O. When most of the material is in solution, the volume is then adjusted to 250 ml with distilled H2 O.
# 2. Thirty-four grams of Hypaque (sodium diatrizoate, Sterling Organics, M.W. .perspectiveto.636) are dissolved in 100 ml distilled H2 O.
# 3. Solutions are then sterile filtered thorugh a 0.45μ millipore filter and stored in sterile containers at 4° C. away from light.
# 4. Working solutions are prepared by mixing 10 ml Hypaque solution with 24 ml Ficoll solution. The mixture is warmed to 25° C. with constant stirring.
# 1. Human blood samples are obtained by veinipuncture into heparinized 20 ml-vacutainer tubes. Fifteen to twenty ml of the undiluted blood is gently layered over an equal volume of Ficoll-Hypaque solution in sterile 50 ml polycarbonate centrifuge tubes using aseptic techniques.
# 2. Prepared samples are centrifuged at 25° C., 400×g for 30 mins. The fuzzy white band at the interface is aseptically aspirated into a 50 ml sterile centrifuge tube with 10-20 ml RPMI-1640. The cells are washed once at 25° C. 400×g for 10 mins. at 25° C.
# 3. Pelleted PBL's are resuspended in 1 ml RPMI for every 8 ml whole blood originally used and counted with a Coulter counter. Concentration is adjusted with RPMI-1640 supplemented with glutamine and antibiotics. The cells are held at room temperatue until used.
# 1. Lipopolysaccharide B or Phytohemagglutinin P powder is weighed and dissolved in RPMI-1640 at a concentration of 1000 μg/ml (1 mg/ml) and filter sterilized through a 0.45μ millipore filter.
# 2. Solutions are aliquotted (1 ml/tube) asceptically into labelled sterile cryotubes and frozen. Samples are not refrozen after partial use, but may be stored for a day or two at 4° C. Lyophilized powder is kept refrigerated at 4° C.
# 1. PBL's are prepared as in SOP #I-004 in serum-free RPMI-1640 supplemented with glutamine and antibiotic-antimycotic solution (GIBCO). One tenth ml per well is added to each well of 96-well microtest culture plates (CoStar Plastics) with 8-channel automatic micropipettors (Flow Labs.) fitted with sterile tips.
# 2. Mitogen solutions are thawed rapidly and diluted to 4 times the desired concentration with RPMI-1640.
# 3. Test compounds are prepared for use as per SOP #C-002, using RPMI-1640 as diluent, and diluted to 4 times the final desired concentration.
# 4. Fifty μl of each dilution of mitogen and/or test compound is added to 6 replicate cultures. Plain RPMI-1640 is used in the same amounts in control cultures for a total volume of 0.2 ml/well.
# 5. Cultures are incubated at 37° C. in a humidified 95% air, 5% CO2 atmosphere (pH .perspectiveto.6.0- 7.0) for 48 hours. The cells are then labelled with 0.5μCi/well ^3 H-TdR (Thymidine) for an additional 18 hours. the cells are harvested with a multiple automatic sample harvester (M.A.S.H.) machine. Nonadherent cells are aspirated onto glass fiber filter strips with 0.9% saline solution (10 well flushes) and the cells lysed with distilled water (20 well flushes). The strips are thoroughly air dried, residual cell deposits cut from the strips and each sample placed in 1 dram glass scintillation vials. Scintillation fluid concentrate (Scintiprep 1, Fisher Chemicals) is diluted 1:50 with scintillation grade toluene (Packard) and 1 ml added to each vial. Samples are evaluated by liquid scintillation spectroscopy and the data expressed as the means counts per minute per test group.
# 8068 (Human) = assay: Inhibition of growth of 8068 human tumor (leukemia) cells; assay type: cell-based; details: 10 μg/ml
# Text: as §2
# [4] = Blood levels after i.p. administration to mice; assay type: in vivo; details: for Convertible to NPT 15392, Biological: Mouse: Table 11 summary; for Blood Level of NPT 15458: i.p., 360 μm/kg of compound administered
# Text: This clearly establishes the fact that NPT 15458 and NPT 15457 can produce NPT 15392 in vivo and further at least one of these derivatives gives much higher blood levels allowing for greater activity.
# [5] = tested on: viruses, immune response, leukemic lymphocytes; details: cited from earlier work
# [6] = HPBL, 24 hrs., read-out: % of NPT 15392
# [7] = Table 11 summary, read-out: Convertible to NPT 15392, Biological: HPBL
# [8] = Mus musculus, Lymphocyte, 10 ng/ml, read-out: D/C (S.I. drug / control)
Structure (SMILES),"metabolised at 24 h [2, 6]","metabolised at 24 h [2, 7]",% of NPT 15392 (HPBL),S.I. (stimulation index) (mouse spleen cells; 10 ng/ml),Cpm Incorp. +PHA (mouse spleen cells; 10 ng/ml),Cpm Incorp. -PHA (mouse spleen cells; 10 ng/ml),Cpm Incorp. +PHA ([3]; 0.036 n moles/ml),Cpm Incorp. -PHA ([3]; 0.036 n moles/ml),S.I. ([3]; 0.036 n moles/ml),Cpm Incorp. +PHA ([3]; 0.36 n moles/ml),Cpm Incorp. -PHA ([3]; 0.36 n moles/ml),S.I. ([3]; 0.36 n moles/ml),Cpm Incorp. +PHA ([3]; 3.6 n moles/ml),Cpm Incorp. -PHA ([3]; 3.6 n moles/ml),S.I. ([3]; 3.6 n moles/ml),fold induction at 0.036 µM ([3]; 0.036 n moles/ml),fold induction at 0.36 µM ([3]; 0.36 n moles/ml),fold induction at 3.6 µM ([3]; 3.6 n moles/ml),Immunomodulating (in vitro) lymphocyte proliferation (in words) [3],"Immunomodulating (in vitro) Lymph. Prolif., change [3]",further results
"CCCCCC[C@H]([C@H](C)OC(C)=O)n1cnc2c(=O)[nH]cnc21 (relative stereo) [NPT 15458, erythro-9-(2-Acetoxy-3-Nonyl)-Hypoxanthine]",100%,100%,0%,436,"66,800 Cpm",153 Cpm,"59,898 Cpm",214 Cpm,280,"63,858 Cpm",221 Cpm,289,"69,055 Cpm",238 Cpm,290,1.43,1.48,1.48,effectve in augmenting PHA induced lymphocyte proliferation and Yes,43-48%,"Conversion to NPT 15392 (in words) [1]: appears to occur to a greater extent than the conversion of NPT 15457 to NPT 15392; inhibition at 10 µg/mL (L1210 (mouse)): 40%; S.I. (stimulation index) (mouse spleen cells; 50 ng/ml): 589; Cpm Incorp. +PHA (mouse spleen cells; 50 ng/ml): 81,297 Cpm; Cpm Incorp. -PHA (mouse spleen cells; 50 ng/ml): 138 Cpm; fold induction at 0.01 µg/mL (mouse spleen cells; [8]): 0.93; fold induction at 0.05 µg/mL (mouse spleen cells; Mus musculus, Lymphocyte, 50 ng/ml, read-out: D/C (S.I. drug / control)): 1.25; activation at 50 µg/mL (mouse spleen cells; Mus musculus, Lymphocyte, 50 μg/ml, read-out: Increase of PHA induced lymphocyte proliferation): ~25%; inhibition at 10 µg/mL (8068 (Human)): 32%; Convertible to NPT 15392, Biological: Mouse [4]: 100; Blood Level of NPT 15458 ([4]; animal # 1): 0 μm/ml × 10^3; Blood Level of NPT 15458 ([4]; animal # 2): 0 μm/ml × 10^3"
"CCCCCC[C@H]([C@H](C)OC(=O)CCC(=O)O)n1cnc2c(=O)[nH]cnc21 (relative stereo) [NPT 15457, Erythro-9-(2-Succinoxy-3-Nonyl) Hypoxanthine]",18.2%,18%,0%,,,,"59,569 Cpm",240 Cpm,250,"59,689 Cpm",228 Cpm,261,"52,149 Cpm",232 Cpm,224,1.28,1.33,1.14,effectve in augmenting PHA induced lymphocyte proliferation and Yes,14-28%,"Convertible to NPT 15392, Biological: Mouse [4]: 25"
"CCCCCC[C@H]([C@H](C)O)n1cnc2c(=O)[nH]cnc21 (relative stereo) [NPT 15392, erythro-9-(2-hydroxy-3-nonyl)-hypoxanthine, reference compound]",100%,,100%,588,"68,804 Cpm",117 Cpm,"59,167 Cpm",297 Cpm,199,"69,057 Cpm",577 Cpm,120,"67,328 Cpm",381 Cpm,176,1.27,0.76,1.13,Yes,12-27%,fold induction at 0.01 µg/mL (mouse spleen cells; [8]): 1.25; Previously demonstrated activity (in words) [5]: antiviral immunomodulating and anti-tumor activity
